For data set [1], the system named is rat mesangial cell line. Kind of data set: TGF-β stimulated 3H-proline incorporation in mesangial cells (Example 5). The conditions noted are these: for Collagen synthesis: inhibition ranked against tranilast (T) or FT11. Type of data set: cell-based. On the procedure:
(§1) A well-characterized cloned rat mesangial cell line (gift of D Nikolic-Patterson) is cultured in DMEM with FBS, 100 U/mL penicillin, and 100 ug/mL streptomycin in a humidified 5% CO2 atmosphere at 37° C. Cells are plated into 24-well culture dishes in DMEM/10% FBS at low density and allowed to adhere overnight. Cells are used between passages 20 and 40. The subconfluent cells are starved overnight in DMEM/0.1% FBS containing 150 uM L-ascorbic acid, prior to 4 hours of pre-treatment with or without tranilast or the FT compounds, followed by the addition of 5 ng/mL rhTGF-β11 (R&D Systems) and 1 uCi/mL of L-(2,3,4,5-^3H)-proline. Control wells have the compounds but no TGF-β1 added. Cells are incubated for a further 44 hours during which time their appearance is visually monitored. The cells are then washed three times in ice-cold PBS, twice in ice cold 10% TCA and solubilized in 750 uL 1M NaOH for 45 minutes at 37° C. or overnight at 4° C. A 500 uL aliquot is neutralized with 500 uL 1M HCl and 10 mL scintillation fluid (Instagel Plus-Perkin-Elmer) added. Counts are performed on a beta counter.
To normalize the proline incorporation counts to take into account the proliferative effects of TGF-β1, a BioRad protein assay is performed on a 100-150 uL aliquot of the remaining solubilized cells. The sample is neutralized with an equal amount of 1M HCl prior to the assay. The BSA standards used to construct the standard curve have the same amount of 1M NaOH and 1M HCl added as is present in the samples for assay.
Proline incorporation is expressed as cpm/ug protein. In order to compare inter-assay results, the incorporation is expressed as percentage reduction of TGF stimulated proline incorporation, where TGF alone gives 0% reduction and the zero control gives 100% reduction.

Data set [2] deals with rat mesangial cell line. Kind of data set: Effect on mesangial cell appearance (visual monitoring during proline assay). Type of data set: cell-based. On the procedure:
as §1
Compounds in Bold have Minimal Effect on Cell Appearance and Viability

Setting [3] is: Rattus norvegicus, Mesangial cell, @ 30 μM, 5 ng/mL TGF-β1, 44 h, read-out: Mesangial Cell Assay TGF-β % reduction of TGF-β stimulation_proline inc.
[4] abbreviates: Rattus norvegicus, Mesangial cell, 5 ng/mL TGF-β1, 44 h, read-out: Mesangial Cell Assay TGF-β % reduction of TGF-β stimulation_proline inc.
The mark [5] stands for this setting: Rattus norvegicus, Mesangial cell, @ 10 μM, 5 ng/mL TGF-β1, 44 h, read-out: Mesangial Cell Assay TGF-β % reduction of TGF-β stimulation_proline inc.

The values that follow come from patent US9561201B2, “Therapeutic compounds” (Fibrotech Therapeutics Pty Ltd, priority 2006, dated 2017).

Molecules are shown by their SMILES. Some results are limits rather than exact numbers.

For the molecule `COc1ccc(/C=C/C(=O)Nc2ccccc2C(=O)O)cc1OC` [Analogue 1, (E)-2-[[3-(3,4-Dimethoxyphenyl)-1-oxo-2-propenyl]amino]benzoic acid], the inhibition at 30 µM in data set [1] (setting [3]) lay in the range of 20 to 50%. Further, the inhibition at 100 µM in data set [1] (setting [4]) fell in the range of 50 to 70%. Besides, the Collagen synthesis entry in data set [1] was “=T”. Further, in data set [2] (@ 100 μM), the “Effect on mesangial cell appearance” value was “stress @”.
For the molecule `O=C(/C=C/c1ccccc1)Nc1ccccc1C(=O)O` [Analogue 2, (E)-2-[(1-Oxo-3-phenyl-2-propenyl)amino]benzoic acid], the melting point (in general, the temperature of the solid-liquid transition) is 188 to 189 °C. In data set [1], the Collagen synthesis entry was “<<T”.
Regarding `COc1ccc(/C=C/C(=O)Nc2ccccc2C(=O)O)cc1` [Analogue 3, (E)-2-[[3-(4-Methoxyphenyl)-1-oxo-2-propenyl]amino]benzoic acid], in data set [1], the Collagen synthesis entry is “<<T”.
Turning to `COc1cccc(/C=C/C(=O)Nc2ccccc2C(=O)O)c1` [Analogue 4, (E)-2-[[3-(3-Methoxyphenyl)-1-oxo-2-propenyl]amino]benzoic acid], the melting point fell in the range of 183 to 184 °C. Moreover, the Collagen synthesis result in data set [1] was “<<T”.
Take `O=C(/C=C/c1ccc(O)c(O)c1)Nc1ccccc1C(=O)O` [Analogue 5, (E)-2-[[3-(3,4-Dihydroxyphenyl)-1-oxo-2-propenyl]amino]benzoic acid]: the melting point is 204 to 206 °C. In addition, in data set [1], the Collagen synthesis entry is given as “May be toxic”. The “Effect on mesangial cell appearance” value in data set [2] (no concentration stated) is listed as “Cells looking”.
For `COc1cc(/C=C/C(=O)Nc2ccccc2C(=O)O)ccc1O` [Analogue 6, (E)-2-[[3-(4-Hydroxy-3-methoxyphenyl)-1-oxo-2-propenyl]amino]benzoic acid], the melting point is 207.5 to 208.5 °C. Moreover, the inhibition at 10 µM in data set [1] (setting [5]) was found to be 20%. Moreover, in data set [1] (Rattus norvegicus, Mesangial cell, @ 50 μM, 5 ng/mL TGF-β1, 44 h, read-out: Mesangial Cell Assay TGF-β % reduction of TGF-β stimulation_proline inc.), the inhibition at 50 µM is 45%. Moreover, in data set [1], the Collagen synthesis result was “<=T”.
On to `COc1ccc(/C=C/C(=O)Nc2cc(OC)c(OC)cc2C(=O)O)cc1OC` [Analogue 9, (E)-2-[[3-(3,4-Dimethoxyphenyl)-1-oxo-2-propenyl]amino]-4,5-dimethoxybenzoic acid], for which the melting point lay in the range of 236 to 239 °C. Besides, the Collagen synthesis entry in data set [1] is “<<T”.
On to `COc1ccc(CCC(=O)Nc2ccccc2C(=O)O)cc1OC` [Analogue 10, 2-[[3-(3,4-Dimethoxyphenyl)-1-oxopropyl]amino]benzoic acid], for which the melting point was found to be 137 °C. Further, in data set [1], the Collagen synthesis entry is listed as “<<T”.
As for `COc1ccc(/C=C/C(=O)Nc2ccccc2C(N)=O)cc1OC` [Analogue 12, (E)-2-[[3-(3,4-Dimethoxyphenyl)-1-oxo-2-propenyl]amino]benzamide], in data set [1] (setting [5]), the inhibition at 10 µM was approximately 13%. Further, the inhibition at 30 µM in data set [1] (setting [3]) came out at 20%. The inhibition at 100 µM in data set [1] (setting [4]) is 36%. Also, in data set [1], the Collagen synthesis entry is recorded as “<FT11”. The “Effect on mesangial cell appearance” value in data set [2] (@ 100 μM) is recorded as “sparse @”.
`COc1ccc(/C=C/C(=O)Nc2ccccc2)cc1OC` [Analogue 13, (E)-[3-(3,4-Dimethoxyphenyl)-1-oxo-2-propenyl]aminobenzene]: the inhibition at 30 µM in data set [1] (setting [3]) is approximately 20%. In addition, the inhibition at 100 µM in data set [1] (setting [4]) is approximately 55%. For the same molecule, the Collagen synthesis result in data set [1] is given as “<FT11”. The “Effect on mesangial cell appearance” value in data set [2] (@ 100 μM) is “sparse @”.
For `COc1ccc(/C=C/C(=O)Nc2ccc(C(=O)O)cc2)cc1OC` [Analogue 14, (E)-4-[[3-(3,4-Dimethoxyphenyl)-1-oxo-2-propenyl]amino]benzoic acid], in data set [1] (setting [4]), the inhibition at 100 µM is approximately 30%. For the same molecule, the Collagen synthesis entry in data set [1] was “<FT11”.
Consider `C#CCNC(=O)c1ccccc1NC(=O)/C=C/c1ccc(OC)c(OC)c1` [Analogue 15, (E)-2-[[3-(3,4-Dimethoxyphenyl)-1-oxo-2-propenyl]amino]-N-propargylbenzamide], for which the inhibition at 10 µM in data set [1] (setting [5]) is approximately 24%. Moreover, the inhibition at 30 µM in data set [1] (setting [3]) was found to be 36%. Also, in data set [1] (setting [4]), the inhibition at 100 µM came to 75%. Moreover, the Collagen synthesis result in data set [1] is “<FT11”. Moreover, the “Effect on mesangial cell appearance” value in data set [2] (@ 30 μM) and in data set [2] (@ 100 μM) was “sparse @ 30” throughout.
In the case of `CCC#CCOc1cc(/C=C/C(=O)Nc2ccccc2C(=O)O)ccc1OC` [Analogue 19], the “Mesangial Cell Assay TGF-β % reduction of TGF-β stimulation_proline inc.” value in data set [1] (@ 10 μM, 5 ng/mL TGF-β1, 44 h) was approximately 80% @ 10; in data set [1] (@ 30 μM, 5 ng/mL TGF-β1, 44 h) it was 100% @ 30. Also, the Collagen synthesis entry in data set [1] is recorded as “>FT11”.
Consider `COc1cc(/C=C/C(=O)Nc2ccccc2C(=O)O)ccc1OCc1cn(CC(=O)Nc2ccccc2)nn1` [Analogue 20, (E)-2-[[3-(3-Methoxy-4-((1-(2-oxo-2-(phenylamino)ethyl)-1H-1,2,3-triazol-4-yl)methoxy)phenyl)-1-oxo-2-propenyl]amino]benzoic acid], for which the inhibition at 10 µM in data set [1] (setting [5]) turned out to be 30%. Further, the inhibition at 30 µM in data set [1] (setting [3]) was determined as 50%. Moreover, the inhibition at 100 µM in data set [1] (setting [4]) was 90%. In data set [1], the Collagen synthesis result is on record as “=FT11”. Also, the “Effect on mesangial cell appearance” value in data set [2] (@ 100 μM) is reported as “dead”.
Consider `CC#CCOc1ccc(/C=C/C(=O)Nc2ccccc2C(=O)O)cc1OC` [Analogue 22, (E)-2-[[3-(4-(But-2-ynyloxy)-3-methoxyphenyl)-1-oxo-2-propenyl]amino]benzoic acid], for which, in data set [1] (Rattus norvegicus, Mesangial cell, @ 3 μM, 5 ng/mL TGF-β1, 44 h, read-out: Mesangial Cell Assay TGF-β % reduction of TGF-β stimulation_proline inc.), the inhibition at 3 µM was approximately 37%. Besides, the inhibition at 10 µM in data set [1] (setting [5]) stood at 56%. For the same molecule, the inhibition at 30 µM in data set [1] (setting [3]) is approximately 70%. In data set [1], the Collagen synthesis result is on record as “=FT11”. In addition, the “Effect on mesangial cell appearance” value in data set [2] (@ 100 μM) is listed as “dead”.
For `COc1ccc(/C=C/C(=O)Nc2ccccc2C(=O)NCc2cn(CC(=O)Nc3ccccc3)nn2)cc1OC` [Analogue 32, (E)-2-(3-(3,4-Dimethoxyphenyl)acrylamido)-N-((1-(2-oxo-2-(phenylamino)ethyl)-1H-1,2,3-triazol-4-yl)methyl)benzamide], the inhibition at 10 µM in data set [1] (setting [5]) is approximately 26%. Moreover, in data set [1] (setting [3]), the inhibition at 30 µM amounted to 62%. In data set [1], the Collagen synthesis result is reported as “Toxic”. For the same molecule, the “Effect on mesangial cell appearance” value in data set [2] (no concentration stated) is listed as “Dead”.
Regarding `COc1cc(/C=C/C(=O)Nc2ccccc2C(=O)O)ccc1OCc1ccccc1` [Analogue 43, (E)-2-[[3-(4-Benzyloxy-3-methoxyphenyl)-1-oxo-2-propenyl]amino]benzoic acid], in data set [1] (setting [5]), the inhibition at 10 µM stood at 48%. In data set [1] (setting [3]), the inhibition at 30 µM amounted to 70%. Also, the “Effect on mesangial cell appearance” value in data set [2] (@ 30 μM) and in data set [2] (@ 100 μM) was “Sick @” throughout.
Take `COc1cc(/C=C/C(=O)Nc2ccccc2C(=O)O)ccc1OCc1ccc2ccccc2c1` [Analogue 44, (E)-2-[[3-(3-Methoxy-4-(naphth-2-ylmethoxy)phenyl)-1-oxo-2-propenyl]amino]benzoic acid]: the Collagen synthesis entry in data set [1] is reported as “Toxic”. In data set [2] (@ all concentrations), the “Effect on mesangial cell appearance” value is listed as “Cells damaged @”.
Consider `COc1ccc(/C=C/C(=O)Nc2ccccc2C(=O)O)cn1` [Analogue 46, (E)-2-[[3-(6-Methoxypyridin-3-yl)-1-oxo-2-propenyl]amino]benzoic acid], for which the melting point lay within 209 to 211 °C. Besides, the Collagen synthesis result in data set [1] is on record as “<<FT11”.
As to `COc1cc(/C=C/C(=O)Nc2ccccc2C(=O)O)ccc1OCC(=O)C12CC3CC(CC(C3)C1)C2` [Analogue 47], the melting point was in the range of 112 to 114 °C.
The molecule `COc1cc(/C=C/C(=O)Nc2ccccc2C(=O)O)ccc1OCCN1CCOCC1` [Analogue 48, (E)-2-[[3-(3-Methoxy-4-(2-morpholinoethoxy)phenyl)-1-oxo-2-propenyl]amino]benzoic acid] came in with a melting point of 195 to 201 °C.
Still for that read-out and setting: in the case of `COc1cc(/C=C/C(=O)Nc2ccccc2C(=O)O)ccc1OCc1cccnc1` [Analogue 49, (E)-2-[[3-(3-Methoxy-4-(pyridin-3-ylmethoxy)phenyl)-1-oxo-2-propenyl]amino]benzoic acid] it was 245 to 251 °C; in that of `COc1ccc(/C=C/C(=O)Nc2ccccc2C(=O)O)cc1OCc1c(C)noc1C` [Analogue 50, (E)-2-[[3-((3-(3,5-Dimethylisoxazol-4-yl)methoxy)-4-methoxyphenyl)-1-oxo-2-propenyl]amino]benzoic acid], 227 to 229 °C.
Same read-out and setting: in the case of `CCN(CC)Cc1cc(/C=C/C(=O)Nc2ccccc2C(=O)O)ccc1OC` [Analogue 51, (E)-2-[[3-(3-((Diethylamino)methyl)-4-methoxyphenyl)-1-oxo-2-propenyl]amino]benzoic acid] it was 202 to 205 °C.
